Experimental data taken from the NIST ThermoML archive (doi:10.1021/je1002237).

Assay: xn = mol fraction of the nth substance listed
Details: 101 kPa, Liquid

CCOS(=O)(=O)[O-].CCn1cc[n+](C)c1 [1-ethyl-3-methylimidazolium ethyl sulfate] + CC1COC(=O)O1
x2 = 0
Details	mass density [kg/m3]
278.15 K	1251.04
283.15 K	1247.5
288.15 K	1244.04
293.15 K	1240.66
298.15 K	1237.27
303.15 K	1233.89
308.15 K	1230.51

CCOS(=O)(=O)[O-].CCn1cc[n+](C)c1 [1-ethyl-3-methylimidazolium ethyl sulfate] + CC#N
mass density [kg/m3]
Details	278.15 K	283.15 K	288.15 K	293.15 K	298.15 K	303.15 K	308.15 K
x2 = 0	1251.04	1247.5	1244.04	1240.66	1237.27	1233.89	1230.51
x2 = 0.0051	1250.84	1247.29	1243.84	1240.44	1237.06	1233.68	1230.3
x2 = 0.0099	1250	1246.45	1243.01	1239.61	1236.22	1232.83	1229.45
x2 = 0.0202	1249.09	1245.54	1242.11	1238.69	1235.31	1231.91	1228.53
x2 = 0.0499	1245.66	1242.09	1238.68	1235.26	1231.85	1228.44	1225.03
x2 = 0.1001	1239.88	1236.38	1232.93	1229.48	1226.04	1222.6	1219.16
x2 = 0.1426	1236.22	1232.77	1229.28	1225.81	1222.35	1218.9	1215.45
x2 = 0.2507	1218.64	1215.07	1211.5	1207.95	1204.39	1200.86	1197.33
x2 = 0.3434	1202.08	1198.44	1194.79	1191.15	1187.54	1183.93	1180.33
x2 = 0.4592	1177.36	1173.6	1169.85	1166.12	1162.39	1158.68	1154.98
x2 = 0.5799	1140.91	1137	1133.1	1129.22	1125.35	1121.49	1117.63
x2 = 0.679	1101.24	1097.17	1093.12	1089.08	1085.03	1081	1076.97
x2 = 0.7423	1068.73	1064.52	1060.33	1056.15	1051.97	1047.8	1043.63
x2 = 0.7865	1041.05	1036.74	1032.43	1028.13	1023.83	1019.53	1015.24
x2 = 0.8539	988.5	983.97	979.43	974.91	970.37	965.84	961.31
x2 = 0.897	945.89	941.18	936.47	931.76	927.04	922.31	917.58
x2 = 0.9342	902.15	897.28	892.39	887.47	882.61	877.89	873.12
x2 = 0.9567	871.14	866.13	861.1	856.07	851.01	845.95	840.87
x2 = 0.9707	849.53	844.43	839.31	834.19	829.04	823.87	818.69
x2 = 0.9803	833.78	828.62	823.44	818.24	813.02	807.78	802.52
x2 = 0.9872	821.79	816.57	811.34	806.09	800.81	795.52	790.19
x2 = 0.9925	812.49	807.23	801.95	796.67	791.34	786	780.62
x2 = 0.9967	804.39	799.09	793.78	788.44	783.08	777.69	772.28
